Patent publication US10130633B2, “Compounds” (BAYER PHARMA AKTIENGESELLSCHAFT, priority 2013, dated 2018)
Where a name gives a salt, the structure may show the parent alone.

Assays:
[1] = test system: constitutive active colorectal cancer cell (CRC) Wnt pathway; assay: HCT116 TOPFlash cellular reporter assay (Super TopFlash luciferase), constitutive active Wnt pathway; assay type: cell-based; settings: HCT116 TOP reporter cells, 36 hours incubation, luciferase expression
Procedure: In order to discover and characterize small molecules which inhibit the constitutive active colorectal cancer cell (CRC) Wnt pathway, a cellular reporter assay was employed. […] Stable transfectants were generated by cotransfection with pcDNA3 and selection of stable transfected cells with 1 mg/ml G418.

[2] = test system: HCT116 FOP control reporter cell line; assay: HCT116 FOPFlash control reporter assay (FOP control vector, non-functional TCF elements); assay type: cell-based; settings: HCT116 FOP control reporter cells, 36 hours incubation, luciferase expression
Text: In a parallel approach, HCT116 cells were cotransfected with the FOP control vector and pcDNA3. The FOP vector is identical to the TOP construct, but it contains instead of functional TCF elements a randomized, non-functional sequence. For this transfection a stable transfected cell line was generated as well.

Structure (SMILES): O=C(CN1CCN(CC(F)(F)F)CC1)Nc1cc(C(=O)Nc2ccc(-c3ccccc3F)nc2)ccc1OC(F)(F)F [Example 233, N-[6-(2-fluorophenyl)pyridin-3-yl]-3-({[4-(2,2,2-trifluoroethyl)piperazin-1-yl]acetyl}amino)-4-(trifluoromethoxy)benzamide]
- IC50 ([1]; Homo sapiens, HCT-116, 36 h): 0.985 µM
- IC50 ([2]; Homo sapiens, HCT-116, 36 h): ≥ 50 µM

Structure (SMILES): CC(C(=O)Nc1cc(C(=O)Nc2nnc(-c3ccccc3)s2)ccc1OC(F)(F)F)N1CCN(C2CC2)CC1 (centres unmarked) [Example 234, 3-{[2-(4-cyclopropylpiperazin-1-yl)propanoyl]amino}-N-(5-phenyl-1,3,4-thiadiazol-2-yl)-4-(trifluoromethoxy)benzamide]
- IC50 ([1]; Homo sapiens, HCT-116, 36 h): 0.635 µM
- IC50 ([2]; Homo sapiens, HCT-116, 36 h): 40.5 µM

Structure (SMILES): CS(=O)(=O)Cc1ccc(C(=O)Nc2nnc(-c3ccccc3)s2)cc1NC(=O)CN1CCOCC1 [Example 235, 4-[(methylsulfonyl)methyl]-3-[(morpholin-4-ylacetyl)amino]-N-(5-phenyl-1,3,4-thiadiazol-2-yl)benzamide]
- IC50 ([1]; Homo sapiens, HCT-116, 36 h): 1.31 µM
- IC50 ([2]; Homo sapiens, HCT-116, 36 h): ≥ 50 µM

Structure (SMILES): CN1CCN(C2(C(=O)Nc3cc(C(=O)Nc4ccc(-c5ccccc5F)nc4)ccc3OC(F)(F)F)CC2)CC1 [Example 236, N-[6-(2-fluorophenyl)pyridin-3-yl]-3-({[1-(4-methylpiperazin-1-yl)cyclopropyl]carbonyl}amino)-4-(trifluoromethoxy)benzamide]
- IC50 ([1]; Homo sapiens, HCT-116, 36 h): 0.276 µM
- IC50 ([2]; Homo sapiens, HCT-116, 36 h): ≥ 50 µM

Structure (SMILES): O=C(CN1CCOCC1)Nc1cc(C(=O)Nc2ccc(-c3ccccc3F)nc2)ccc1OC(F)F [Example 237, 4-(difluoromethoxy)-N-[6-(2-fluorophenyl)pyridin-3-yl]-3-[(morpholin-4-ylacetyl)amino]benzamide]
- IC50 ([1]; Homo sapiens, HCT-116, 36 h): 0.139 µM
- IC50 ([2]; Homo sapiens, HCT-116, 36 h): 13 µM

Structure (SMILES): O=C(Cc1ccccn1)Nc1cc(C(=O)Nc2ccc(-c3ccccc3F)nc2)ccc1OC1CC1 [Example 238, 4-(cyclopropyloxy)-N-[6-(2-fluorophenyl)pyridin-3-yl]-3-[(pyridin-2-ylacetyl)amino]benzamide]
- IC50 ([1]; Homo sapiens, HCT-116, 36 h): 1.75 µM
- IC50 ([2]; Homo sapiens, HCT-116, 36 h): ≥ 50 µM

Structure (SMILES): O=C(CN1CCOCC1)Nc1cc(C(=O)Nc2nnc(-c3ccccc3)s2)ccc1OC(F)F [Example 239, 4-(difluoromethoxy)-3-[(morpholin-4-ylacetyl)amino]-N-(5-phenyl-1,3,4-thiadiazol-2-yl)benzamide]
- IC50 ([1]; Homo sapiens, HCT-116, 36 h): 2.89 µM
- IC50 ([2]; Homo sapiens, HCT-116, 36 h): ≥ 50 µM

Structure (SMILES): O=C(CN1CC2CCC(C1)O2)Nc1cc(C(=O)Nc2nnc(-c3ccccc3)s2)ccc1OC(F)(F)F [Example 240, 3-[(8-oxa-3-azabicyclo[3.2.1]oct-3-ylacetyl)amino]-N-(5-phenyl-1,3,4-thiadiazol-2-yl)-4-(trifluoromethoxy)benzamide]
- IC50 ([1]; Homo sapiens, HCT-116, 36 h): 1.18 µM
- IC50 ([2]; Homo sapiens, HCT-116, 36 h): ≥ 50 µM

Structure (SMILES): CC(C(=O)Nc1cc(C(=O)Nc2ccc(-c3cc(F)cc(F)c3)nc2)ccc1OC(F)(F)F)N1CCOCC1 (centres unmarked) [Example 245, N-[6-(3,5-difluorophenyl)pyridin-3-yl]-3-{[2-(morpholin-4-yl)propanoyl]amino}-4-(trifluoromethoxy)benzamide]
- IC50 [1]: 0.00785 µM
- IC50 [2]: 5.2 µM

Structure (SMILES): CC(C(=O)Nc1cc(C(=O)Nc2ccc(-c3cc(F)cc(F)c3)nc2)ccc1OC(F)(F)F)N1CCOCC1 (centres unmarked) [Example 246, N-[6-(3,5-difluorophenyl)pyridin-3-yl]-3-{[2-(morpholin-4-yl)propanoyl]amino}-4-(trifluoromethoxy)benzamide]
- IC50 [1]: 0.0475 µM
- IC50 [2]: 27.8 µM

Structure (SMILES): CC(C(=O)Nc1cc(C(=O)Nc2ccc(-c3ccccc3F)nc2)ccc1OC(F)(F)F)N1CCN(C2CC2)CC1 (centres unmarked) [Example 249, 3-{[2-(4-cyclopropylpiperazin-1-yl)propanoyl]amino}-N-[6-(2-fluorophenyl)pyridin-3-yl]-4-(trifluoromethoxy)benzamide]
- IC50 [1]: 0.198 µM
- IC50 [2]: 38 µM

Structure (SMILES): CC(C(=O)Nc1cc(C(=O)Nc2ccc(-c3ccccc3F)nc2)ccc1OC(F)(F)F)N1CCN(C2CC2)CC1 (centres unmarked) [Example 250, 3-{[2-(4-cyclopropylpiperazin-1-yl)propanoyl]amino}-N-[6-(2-fluorophenyl)pyridin-3-yl]-4-(trifluoromethoxy)benzamide]
- IC50 [1]: 0.192 µM
- IC50 [2]: 31 µM

Structure (SMILES): CN(C)C1(C(=O)Nc2cc(C(=O)Nc3ccc(-c4cc(F)cc(F)c4)nc3)ccc2OC(F)(F)F)CC1 [Example 251, N-[6-(3,5-difluorophenyl)pyridin-3-yl]-3-({[1-(dimethylamino)cyclopropyl]carbonyl}amino)-4-(trifluoromethoxy)benzamide]
- IC50 ([1]; Homo sapiens, HCT-116, 36 h): 0.22 µM
- IC50 ([2]; Homo sapiens, HCT-116, 36 h): 16 µM

Structure (SMILES): O=C(CN1CCOCC1)Nc1cc(NC(=O)c2cnc(-c3ccccc3)s2)ccc1OC(F)(F)F [Example 252, N-{3-[(morpholin-4-ylacetyl)amino]-4-(trifluoromethoxy)phenyl}-2-phenyl-1,3-thiazole-5-carboxamide]
- IC50 ([1]; Homo sapiens, HCT-116, 36 h): 2.3 µM
- IC50 ([2]; Homo sapiens, HCT-116, 36 h): ≥ 50 µM

Structure (SMILES): O=C(CN1CCN(C2CC2)CC1)Nc1cc(C(=O)Nc2nnc(-c3ccccc3)s2)ccc1Br [Example 253, 4-bromo-3-{[(4-cyclopropylpiperazin-1-yl)acetyl]amino}-N-(5-phenyl-1,3,4-thiadiazol-2-yl)benzamide]
- IC50 ([1]; Homo sapiens, HCT-116, 36 h): 4.04 µM
- IC50 ([2]; Homo sapiens, HCT-116, 36 h): ≥ 50 µM

Structure (SMILES): O=C(CN1C[C@@H]2C[C@H]1CO2)Nc1cc(C(=O)Nc2nnc(-c3ccccc3)s2)ccc1OC(F)(F)F [Example 254, 3-{[(1S,4S)-2-oxa-5-azabicyclo[2.2.1]hept-5-ylacetyl]amino}-N-(5-phenyl-1,3,4-thiadiazol-2-yl)-4-(trifluoromethoxy)benzamide]
- IC50 ([1]; Homo sapiens, HCT-116, 36 h): 4.34 µM
- IC50 ([2]; Homo sapiens, HCT-116, 36 h): ≥ 50 µM

Structure (SMILES): CC(C(=O)Nc1cc(NC(=O)c2cnc(-c3ccccc3)s2)ccc1OC(F)(F)F)N1CCOCC1 (centres unmarked) [Example 255, N-[3-{[2-(morpholin-4-yl)propanoyl]amino}-4-(trifluoromethoxy)phenyl]-2-phenyl-1,3-thiazole-5-carboxamide]
- IC50 ([1]; Homo sapiens, HCT-116, 36 h): 2.1 µM
- IC50 ([2]; Homo sapiens, HCT-116, 36 h): ≥ 50 µM

Structure (SMILES): COc1ccc(NC(=O)c2ccc(-c3ccccc3)nc2)cc1NC(=O)C1(N2CCOCC2)CC1 [Example 256, N-[4-methoxy-3-({[1-(morpholin-4-yl)cyclopropyl]carbonyl}amino)phenyl]-6-phenylnicotinamide]
- IC50 ([1]; Homo sapiens, HCT-116, 36 h): 0.24 µM
- IC50 ([2]; Homo sapiens, HCT-116, 36 h): ≥ 50 µM

Structure (SMILES): Cc1ccccc1-c1nnc(NC(=O)c2ccc(OC(F)(F)F)c(NC(=O)C3(N4CCOCC4)CC3)c2)s1 [Example 257, N-[5-(2-methylphenyl)-1,3,4-thiadiazol-2-yl]-3-({[1-(morpholin-4-yl)cyclopropyl]carbonyl}amino)-4-(trifluoromethoxy)benzamide]
- IC50 ([1]; Homo sapiens, HCT-116, 36 h): 0.017 µM
- IC50 ([2]; Homo sapiens, HCT-116, 36 h): ≥ 50 µM

Structure (SMILES): COCc1ccc(C(=O)Nc2nnc(-c3ccccc3C)s2)cc1NC(=O)C1(N2CCN(C)CC2)CC1 [Example 258, 4-(methoxymethyl)-N-[5-(2-methylphenyl)-1,3,4-thiadiazol-2-yl]-3-({[1-(4-methylpiperazin-1-yl)cyclopropyl]carbonyl}amino)benzamide trifluoroacetate (1:1)]
- IC50 ([1]; Homo sapiens, HCT-116, 36 h): 0.0455 µM
- IC50 ([2]; Homo sapiens, HCT-116, 36 h): 24 µM

Structure (SMILES): CN1CCN(CC(=O)Nc2cc(C(=O)Nc3nnc(-c4ccccc4)s3)ccc2OCC2CC2)CC1 [Example 259, 4-(cyclopropylmethoxy)-3-{[(4-methylpiperazin-1-yl)acetyl]amino}-N-(5-phenyl-1,3,4-thiadiazol-2-yl)benzamide]
- IC50 ([1]; Homo sapiens, HCT-116, 36 h): 0.119 µM
- IC50 ([2]; Homo sapiens, HCT-116, 36 h): ≥ 50 µM

Structure (SMILES): COCCN(C)C1(C(=O)Nc2cc(C(=O)Nc3nnc(-c4ccccc4)s3)ccc2OC(F)(F)F)CC1 [Example 261, 3-[({1-[(2-methoxyethyl)(methyl)amino]cyclopropyl}carbonyl)amino]-N-(5-phenyl-1,3,4-thiadiazol-2-yl)-4-(trifluoromethoxy)benzamide]
- IC50 ([1]; Homo sapiens, HCT-116, 36 h): 0.15 µM
- IC50 ([2]; Homo sapiens, HCT-116, 36 h): ≥ 50 µM
